Patent publication US20190169691A1, “HERITABLE EPIGENETIC MODIFICATIONS AS MARKERS OF CHEMOTHERAPY EXPOSURE” (Washington State University, priority 2016, published 2019)
Where “and” joins values, the source holds several entries; their conditions need not be identical. Identical values can stand only once.

Test system: sperm
Test: Semen analysis: sperm number and seminal fluid parameters (CASA) after adolescent chemotherapy
Format: in vivo, human
Conditions: individual adult male osteosarcoma survivors, semen collected approximately ten years after chemotherapy at 14-20 years of age
Excerpt: The patients were 19-30 year-old male survivors of osteosarcoma recruited from the Seattle Children's Hospital in Seattle Wash. and four collaborating institutions (Children's Hospital of Pennsylvania, Philadelphia, Pa.; Miller Children's, Long Beach, Calif.; Children's Hospital, University of Minnesota, Minneapolis, Minn.; and Children's Hospital, Vanderbilt University, Nashville, Tenn.). These men had been treated for their disease with cisplatin-based chemotherapy regimens, including ifosfamide in some cases, when they were 14-20 years of age. Each patient was recruited by in-clinic or mail recruitment protocols. […]
Each patient and control was asked to provide a semen sample via home seminal fluid collection, which we used to allow for ease of subject participation since the sample can be obtained without the individual traveling to a laboratory. […] For sperm concentration (per ml), each participant's semen was diluted and assessed by CASA (Computer Assisted Sperm Analysis). […] Although sperm motility was not assessed (because it requires a fresh sample), count and morphology data nonetheless provide a great deal of information regarding spermatogenesis and abnormalities and both are associated with an increased risk of infertility. […]

For `N.N.[Cl][Pt][Cl]` [Cisplatin, cisplatin], the “Sperm # (Total Millions)” value was 100.2 Total Millions and 170.5 Total Millions and 178 Total Millions and 7.34 Total Millions and 21 Total Millions and 49 Total Millions and 55 Total Millions.
